Laboratory results published in EP1914235A1, “CHIRAL TETRA-HYDRO BETA-CARBOLINE DERIVATIVES AND APPLICATIONS THEREOF AS ANTIPARASITIC COMPOUNDS” (Université de Lille 2 Droit et Santé, priority 2006, dated 2008).
≈ marks a conversion by molar mass, not a printed value.

How the values were obtained:
P. falciparum K1 strain = test: [3H]hypoxanthine drug sensitivity assay, K1 strain; format: cell-based; details: Plasmodium falciparum, K1; read-out: IC50 K1
Experimental: (§1) The cultures are naturally asynchronous (65-75% ring stage) and are maintained in continuous log phase growth in RPMI-1640 medium (as developed by Moore et. al. at Roswell Park Memorial Institute, sold by Sigma Aldrich) supplemented with 5% washed human A+ erythrocytes, 25 mM Hepes, […] NaHCO3, and AlbuMAXII (lipid-rich bovine serum albumin) sold GIBCO, Grand Island, NY (CM). All cultures and assays were conducted at 37°C under an atmosphere of 5% CO2 and 5% O2, with a balance of N2.
(§2) The compounds were further diluted to the appropriate concentration using complete medium RPMI-1640 supplemented with 15nM cold hypoxanthine and AlbuMAXII.
(§3) Assays were performed in sterile 96-well microtitre plates; each plate contained 100 µl of parasite culture (0.5% parasitemia, 2.5% hematocrit). Each compound was tested in triplicate and parasite growth compared to control and blank (uninfected erythrocytes) wells. After 24h of incubation at 37°C, […] of [^3H]hypoxanthine was added to each well. Cultures were incubated for a further 24 h before they were harvested onto glass-fiber filter mats. The radioactivity was counted using a Wallac Microbeta® 1450 scintillation counter. The results were recorded as counts per minute (CPM) per well at each compound concentration, control and blank wells. Percentage inhibition was calculated from comparison to blank and control wells, and IC50 values calculated using Microsoft XLFit ® line fitting software (IDBS, UK).
(§4) Both the 3D7 clone and the K1 line were used. The compounds were diluted three-fold over at 12 different concentrations with an appropriate starting concentration based on the preliminary screen. The IC50 was determined by a sigmoidal dose response analysis using Microsoft XLFit™ (IDBS, UK).

[1] = tested on: P. falciparum 3D7 clone of NF54; test: [3H]hypoxanthine drug sensitivity assay, 3D7 clone; format: cell-based; details: Plasmodium falciparum; P. falciparum 3D7, sensitive to all anti-malarials; 48 h, [3H]hypoxanthine uptake; read-out: IC50 3D7(µg/ml)
Experimental: as §1, §2
as §3, with “The results were recorded as counts per minute (CPM) per well at each compound concentration, control and blank wells.” left out
The preliminary screen used the 3D7 strain. The compounds were tested at 6 concentrations (30, 10, 3, 1, 0.3, and 0.1 µg/ml).
as §4

[2] = tested on: Plasmodium berghei ANKA strain; test: In vivo antiparasitic activity in infected mice (4-day dosing, parasitemia on day 5); details: mice infected with P. berghei ANKA; for Activity at the dose 10 mg/kg (%): 10 mg/kg every day for 4 days; for Activity at the dose 50 mg/kg (%): 50 mg/kg every day for 4 days
Experimental: Female mice (TFW or BALB/c, specific pathogen free), 18-20 g, or
Infection: Blood was taken from donor mice and diluted in RPMI-1640 medium to a parasitemia of 1% (the equivalent of 1x10^7 infected erythrocytes/ml) whilst kept on ice. An inoculum of 0.2 ml was administered to each mouse by the intravenous route. At 2-4 hours post-inoculation dosing commences.
Evaluation endpoint: On day 5 blood smears of all animals (2 slides/mouse) were prepared, fixed with methanol and stained with 10% Giemsa's stain. Parasitemia was determined microscopically by counting 1000 red blood cells under oil immersion at 1000x magnification.
Each of the tested compounds of formula (I) according to the invention was prepared as a stock solution of 5 mg/ml in 10% DMSO/PBS. Insoluble compounds of formula (I) were milled with stainless steel balls for up to 24 hours to reduce particle size. Fresh dilutions were prepared each day. The route of administration of tested compounds is intra peritoneal (i.p.).
Compounds were formulated at 10 mg/kg or at 50 mg/kg in a standard suspension vehicle (0.5% carboxymethylcellulose, 0.5% benzyl alcohol, 0.4% Tween® 80 in 0.9% NaCl) for both oral and i.p. administration.
Dosing was over a 4 day period as above, and evaluation was also as above.

Structure (SMILES)	IC50 (P. falciparum K1 strain)	IC50 [1]	Activity at the dose 10 mg/kg (%) [2]	Activity at the dose 50 mg/kg (%) [2]
Cn1ccnc1CN1CC[C@@H](N2CC(=O)N3[C@H](c4ccc5c(c4)OCO5)c4[nH]c5ccccc5c4C[C@@H]3C2=O)C1 [Compound 28, (6R,12aR)-6-Benzo[1,3]dioxol-5-yl-2-[(R)-1-(1-methyl-1H-imidazol-2-ylmethyl)-pyrrolidin-3-yl]-2,3,6,7,12,12a-hexahydro-pyrazino[1',2':1,6]pyrido[3,4-b]indole-1,4-dione]	0.07 µg/mL (≈ 0.13 µM)	0.09 µg/mL (≈ 0.167 µM)	24%	32%
O=C1[C@H]2Cc3c([nH]c4ccccc34)[C@@H](c3ccc4c(c3)OCO4)N2C(=O)CN1[C@@H]1CCN(Cc2ccccn2)C1 [Compound 27, (6R,12aR)-6-Benzo[1,3]dioxol-5-yl-2-((R)-1-pyridin-2-ylmethyl-pyrrolidin-3-yl)-2,3,6,7,12,12a-hexahydro-pyrazino [1',2':1,6]pyrido[3,4-b]indole-1,4-dione]	0.2 µg/mL (≈ 0.373 µM)	0.08 µg/mL (≈ 0.149 µM)	–	10%
O=C1[C@H]2Cc3c([nH]c4ccccc34)[C@@H](c3ccc(Cl)nc3)N2C(=O)CN1[C@@H]1CCN(Cc2ccccc2)C1 [Compound 84c, (6R,12aR)-2-((R)-1-Benzyl-pyrrolidin-3-yl)-6-(6-chloro-pyridin-3-yl)-2,3,6,7,12,12a-hexahydro-pyrazino[1',2':1,6] pyrido[3,4-b]indole-1,4-dione]	0.11 µg/mL (≈ 0.209 µM)	0.07 µg/mL (≈ 0.133 µM)	–	9.1%

Second part, led by results:

IC50 (P. falciparum K1 strain)	IC50 [1]	Structure (SMILES)	Activity at the dose 10 mg/kg (%) [2]	Activity at the dose 50 mg/kg (%) [2]
0.12 µg/mL (≈ 0.224 µM)	0.1 µg/mL (≈ 0.187 µM)	O=C1[C@H]2Cc3c([nH]c4ccccc34)[C@@H](c3ccc4c(c3)OCO4)N2C(=O)CN1[C@@H]1CCN(Cc2ccccc2)C1 [Compound 6, (6R,12aR)-6-Benzo[1,3]dioxol-5-yl-2-((R)-1-benzyl-pyrrolidin-3-yl)-2,3,6,7,12,12a-hexahydro-pyrazino[1',2':1,6]pyrido [3,4-b] indole-1,4-dione]	–	43%
0.01 µg/mL (≈ 0.0182 µM)	0.27 µg/mL (≈ 0.492 µM)	O=C1[C@H]2Cc3c([nH]c4ccccc34)[C@@H](c3ccc4c(c3)OCO4)N2C(=O)CN1C1CCN(Cc2ccccc2)CC1 [Compound 10, (6R,12aR)-6-Benzo[1,3]dioxol-5-yl-2-(1-benzyl-piperidin-4-yl)-2,3,6,7,12,12a-hexahydro-pyrazino[1',2':1,6]pyrido[3,4-b]indole-1,4-dione]	15%	31%
